Tests used:
[1] = tested on: whole blood sample from a healthy subject; experiment: Titration of thrombin inhibitor hirudin with thrombin (CPA); format: cell-based
Method: The levels of thrombin inhibitory drugs such as hirudin and its analogs were determined by titrating the thrombin inhibitor in a whole blood sample with thrombin. To a whole blood sample from a healthy subject hirudin (Sigma) was add to a level of 5×10^−1 anti-thrombin Units/ml. Bovine thrombin (Sigma) (5 Units/ml or 10 Units/ml) was then added to the hirudin treated and untreated whole blood. The thrombin was placed on the upper cap of a CPA well set attached to a magnetic stirrer. The stirrer assembly was placed in a well containing 130 μl of whole blood and spinning at about 720 rpm started immediately. After two min. the spinning was stopped. As described above, the well was washed and stained, and the clot % surface coverage and clot average size determined.

[2] = tested on: blood from patients receiving coumadin therapy; experiment: PT reagent initiated clot formation (CPA), coumadin patients; format: cell-based
Method: In this assay PT-fibrinogen reagent (Instrumentation Laboratories) was diluted 1:10 in normal saline containing 0.5% BSA to yield a 10% solution. On the upper cap of a CPA well set attached to a magnetic stirrer 1.6 μl of 1M CaCl2 and 3.8; or 4.0 μl of the diluted PT reagent were added. The stirrer assembly was placed in a CPA well containing 130 μl of whole blood and spinning at about 720 rpm started immediately. The spinning was stopped after 2 min. The well was then washed and stained as described above, and clot % surface coverage and clot average size were determined.

[3] = INR (ratio of PT clotting times) in patients on coumadin; format: in vivo; settings: patients receiving coumadin therapy; normal INR 0.8-1.3
[4] = tested on: vitamin K dependent clotting factors (II, VII, IX and X); experiment: Level of vitamin K dependent clotting factors on coumadin therapy; format: in vivo; settings: patient on coumadin therapy, INR=3.0
[5] = tested on: blood from a patient receiving heparin therapy; experiment: Heparin inhibition of factor Xa clot formation (CPA); format: cell-based
Method: In the following experiment bovine factor Xa (Sigma) and CaCl2 were used to initiate clot formation in whole blood. On the upper cap of a CPA well set was placed 2.2 μl of a factor Xa solution (7×10^−3 unit/ml) and 1.6 μl of 1M CaCl2. The stirrer assembly was placed in a well containing 130 μl of whole blood and spinning at about 720 rpm started immediately. The spinning was stopped after 2 min. The well was then washed and stained, and the clot % surface coverage and the clot average size were determined.

[6] = PTT of patient receiving heparin therapy; format: in vivo; settings: normal 26-34 sec
[7] = tested on: normal blood samples (citrated whole blood); experiment: Thrombin dose response of fibrin clot formation (CPA, image analysis); format: cell-based; settings: FIGS. 2A-2B
Method: In this assay, increasing concentrations of thrombin, which promotes fibrin clot formation, were applied to normal blood samples. In particular, thrombin was placed on the tip of the rotating conical disc, in an amount yielding final concentration according to the points indicated in FIG. 3A and FIG. 3B. The conical disc was then applied in the well containing 130 μL of citrated whole blood, rotated at 720 rpm for two minutes followed by washing and staining of the well. For quantitative determination of fibrin clot formation image analysis (using Impact-R image analysis system, DiaMed, Switzerland) was performed.
Image analysis of the stained fibrin clots was performed expressing the amount of clot in terms of % of surface covered (SC, %), and the average size (AS, μm^2) of the stained clots.

[8] = factor Xa and CaCl2 added, FIG. 5D

Q: For hirudin, which clotting ([1]; whole blood containing hirudin, thrombin 4×10^−2 Units/ml, FIG. 7B) is on record?
A: Its clotting is “no clotting was observed”.

Q: With `CC(=O)CC(c1ccccc1)c1c(O)c2ccccc2oc1=O` (centres unmarked) [coumadin] as the compound, how does the clot formation ([2]; blood from coumadin patients, absence of clot initiator or CaCl2, FIG. 4C) read?
A: Its clot formation is “no clots are formed”.

Q: And the clot formation ([2]; blood from coumadin treated patients (INR 3.0), PT reagent added, FIG. 4D)?
A: The clot formation was “no clot formation was observed”.

Q: What about the INR [3] of the same compound?
A: The INR was 3.0.

Q: And the “vitamin K dependent clotting factors level” value [4]?
A: The value was 25-40%.

Q: With heparin as the compound, how does the clot average size [5, 8] read?
A: The clot average size was 30.

Q: And the clot formation [5, 8]?
A: Its clot formation is “no clot formation was observed”.

Q: What about the surface coverage [5, 8] of the same compound?
A: The surface coverage was 3.0%.

Q: What about the clot average size ([5]; no factor Xa or CaCl2, FIG. 5C) of the same compound?
A: The clot average size was 24.

Q: What about the surface coverage ([5]; no factor Xa or CaCl2, FIG. 5C) of the same compound?
A: The surface coverage was 8.2%.

Q: And the PTT [6]?
A: The PTT was 130 s.

Q: What does the source list for “thrombin: Bovine thrombin (Sigma), promotes fibrin clot formation; clot initiator”?
A: clotting ([1]; added thrombin 6×10^−2 Units/ml, whole blood treated with hirudin, FIG. 7D): Clotting was observed; added thrombin concentration at which clotting began ([1]; thrombin added to the whole blood, FIG. 7C): 1×10^−2 Units/ml; thrombin added giving sharp increase in both average size and surface coverage [7]: 0.005 IU/ml

Source: patent publication US20060141629A1, “Method and system for determining platelet-mediated clot formation” (priority 2004, published 2006)
